# In US20220273619A1, “PHARMACEUTICAL FORMULATIONS COMPRISING SODIUM PALMITOYL-L-PROLYL-L-PROLYLGLYCYL-L-TYROSINATE AND METHODS FOR PREPARING THE SAME” (Bridge Blctherapeutics, lnc., priority 2019, published 2022):
# Counter-ions that a name gives are not always drawn. Where a SMILES comes first, the peptide text is derived from it. The star is where a group is joined. Palmitoyl = CCCCCCCCCCCCCCCC(=O)*
# How the values were obtained:
# [1] = Solubility in water of other salts of Compound II; format: physicochemical
# [2] = Stability test: impurities by HPLC after storage; format: physicochemical
# Method: After the dosage forms prepared in the present invention were stored for a period of time in a long-term storage stability condition (25° C./60% RH) or an accelerated stability condition (40° C./75% RH), the content of individual impurities or total impurities was measured. The impurities were measured using a validated HPLC analysis method. The specific conditions are as follows.
# [3] = Solubility at room temperature, manual dilution combined with visual observation; format: physicochemical; conditions: for solubility: room temperature
# Method: The solubility was tested in various solvents for palmitoyl-L-prolyl-L-prolyl-glycyl-L-tyrosine (Compound II). The solubility test was performed by manual dilution combined with visual observation.
# The solubility was tested at room temperature in various solvents for Compound I. In addition, the solubility test was performed by manual dilution combined with visual observation. Specifically, 2 mg of Compound I was added to a 1.5 mL HPLC vial and continuously stirred at ambient temperature while the solvent was gradually added.
# [4] = system: interleukin-6; conditions: cited from earlier work
# [5] = Solubility by shaking at 25° C., filtration and HPLC of the filtrate; format: physicochemical
# Method: The solubility was measured by the following method. An appropriate amount of sample was placed in a 1.5 mL HPLC vial, and then 1.0 mL of solvent was added. The HPLC vial was shaken at 25° C. at a speed of 700 rpm, then the slurry was filtered, and the filtrate was analyzed by HPLC. In this case, the limit of quantification (LOQ) was 2 μg/mL.
# In order to increase the solubility of palmitoyl-L-prolyl-L-prolyl-glycyl-L-tyrosine (Compound II) in water, the amorphous solid dispersions of Compound II were prepared, and then the solubility was measured.
# In order to increase the solubility of palmitoyl-L-prolyl-L-prolyl-glycyl-L-tyrosine (Compound II) in water, a surfactant such as sodium lauryl sulfate (SLS) was added, and the solubility was measured.
# [6] = system: NF-κB; conditions: cited from earlier work
# [7] = Solid-form observation of the disodium salt (hygroscopicity); format: physicochemical; conditions: could not be maintained in the form of the solid powder
# Method: In the method for preparing Compound I, an excess of NaOH (for example; 4 equivalents) was added to prepare disodium palmitoyl-L-prolyl-L-prolyl-glycyl-L-tyrosinate.
# [8] = 1,4-dioxane, 1,4-dioxane, read-out: Solubility
# [9] = 1-butanol, read-out: Solubility
# [10] = 2-methyl tetrahydrofuran, read-out: Solubility
# [11] = ACN-H2O (1:1), read-out: Solubility
# [12] = N-methyl pyrrolidone, read-out: Solubility
# [13] = THF-H2O (1:1), read-out: Solubility
# [14] = acetone-H2O (1:2), read-out: Solubility
# [15] = acetonitrile, read-out: Solubility
# [16] = cyclohexane, read-out: Solubility
# [17] = ethanol-H2O (1:1), read-out: Solubility
# [18] = ethanol-H2O (3:1), read-out: Solubility
# [19] = ethyl acetate, read-out: Solubility
# [20] = isopropyl acetate, read-out: Solubility
# [21] = isopropyl alcohol, read-out: Solubility
# [22] = methanol-H2O (1:1), read-out: Solubility
# [23] = methanol-H2O (3:1), read-out: Solubility
# [24] = methyl ethyl ketone, read-out: Solubility
# [25] = methyl isobutyl ketone, read-out: Solubility
# [26] = methyl t-butyl ether, read-out: Solubility
# [27] = tetrahydrofuran, read-out: Solubility
# [28] = SGF (pH = 1.2), 25° C., LOQ = 2 μg/mL
smiles,measurement,setting,value
CCCCCCCCCCCCCCCC(=O)N1CCC[C@H]1C(=O)N1CCC[C@H]1C(=O)NCC(=O)N[C@@H](Cc1ccc(O)cc1)C(=O)O [Arginine Salt] (Palmitoyl-PPGY-OH),solubility,[1],<10000 µg/mL
"CCCCCCCCCCCCCCCC(=O)N1CCC[C@H]1C(=O)N1CCC[C@H]1C(=O)NCC(=O)N[C@@H](Cc1ccc(O)cc1)C(=O)[O-].[Na+] [Compound I, sodium palmitoyl-L-prolyl-L-prolyl-glycyl-L-tyrosinate] (Palmitoyl-PPGY-OH)",Stability of Compound I,"[2]; in capsules of Table 26, 1 month, accelerated stability condition 40° C./75% RH",stable
same,Stability of Compound I,"[2]; in capsules of Table 31, 1 month, accelerated stability condition 40° C./75% RH",stable
same,Stability of Compound I,"[2]; in capsules of Table 36, 6 months, long-term storage stability condition 25° C./60% RH",stable
same,Stability of Compound I,"[2]; in capsules of Table 37, 6 months, accelerated stability condition 40° C./75% RH",stable
same,solubility,[3]; [8],33300 to 50000 µg/mL
same,solubility,[3]; [9],50000 to 100000 µg/mL
same,solubility,[3]; [10],> 100000 µg/mL
same,solubility,[3]; [11],50000 to 100000 µg/mL
same,solubility,"[3]; DMF, read-out: Solubility",20000 to 33300 µg/mL
same,solubility,"[3]; DMSO, read-out: Solubility",50000 to 100000 µg/mL
same,solubility,[3]; [12],50000 to 100000 µg/mL
same,solubility,[3]; [13],50000 to 100000 µg/mL
same,solubility,[3]; [14],50000 to 100000 µg/mL
same,solubility,"[3]; acetone, read-out: Solubility",< 1000 µg/mL
same,solubility,[3]; [15],< 1000 µg/mL
same,solubility,[3]; [16],< 1000 µg/mL
same,solubility,[3]; [17],50000 to 100000 µg/mL
same,solubility,[3]; [18],50000 to 100000 µg/mL
same,solubility,"[3]; ethanol, read-out: Solubility",50000 to 100000 µg/mL
same,solubility,[3]; [19],< 1000 µg/mL
same,solubility,"[3]; heptane, read-out: Solubility",< 1000 µg/mL
same,solubility,[3]; [20],< 1000 µg/mL
same,solubility,[3]; [21],50000 to 100000 µg/mL
same,solubility,[3]; [22],> 100000 µg/mL
same,solubility,[3]; [23],> 100000 µg/mL
same,solubility,"[3]; methanol, read-out: Solubility",> 100000 µg/mL
same,solubility,[3]; [24],3300 to 5000 µg/mL
same,solubility,[3]; [25],1200 to 1400 µg/mL
same,solubility,[3]; [26],< 1000 µg/mL
same,solubility,[3]; [27],> 100000 µg/mL
same,solubility,"[3]; toluene, read-out: Solubility",50000 to 100000 µg/mL
same,water solubility of Compound I compared to that of Compound II in an acid form,[3]; water,tens of thousands of times or more
same,solubility,"[3]; water, read-out: Solubility",≥ 100000 µg/mL
"CCCCCCCCCCCCCCCC(=O)N1CCC[C@H]1C(=O)N1CCC[C@H]1C(=O)NCC(=O)N[C@@H](Cc1ccc(O)cc1)C(=O)O [Compound II, Palmitoyl-L-prolyl-L-prolyl-glycyl-L-tyrosine] (Palmitoyl-PPGY-OH)",inhibiting the expression of interleukin-6,[4],excellent effect
same,solubility,"[5]; 1% Poloxamer 188 added, SGF (pH = 1.2), LOQ = 2 μg/mL",<LOQ
same,solubility,"[5]; 1% Poloxamer 188 added, Water, LOQ = 2 μg/mL",<LOQ
same,solubility,"[5]; 5% Poloxamer 188 added, SGF (pH = 1.2), LOQ = 2 μg/mL",<LOQ
same,solubility,"[5]; 5% Poloxamer 188 added, Water, LOQ = 2 μg/mL",<LOQ
same,solubility,"[5]; FaSSIF with 1% Poloxamer 188, 1% Poloxamer 188 added, FaSSIF, LOQ = 2 μg/mL, read-out: Solubility",10 µg/mL
same,solubility,"[5]; FaSSIF with 1% SLS, 1% SLS added, FaSSIF, LOQ = 2 μg/mL, read-out: Solubility",1990 µg/mL
same,solubility,"[5]; FaSSIF with 5% Poloxamer 188, 5% Poloxamer 188 added, FaSSIF, LOQ = 2 μg/mL, read-out: Solubility",10 µg/mL
same,solubility,"[5]; FaSSIF with 5% SLS, 5% SLS added, FaSSIF, LOQ = 2 μg/mL, read-out: Solubility",5090 µg/mL
same,solubility,"[5]; FaSSIF, 25° C., LOQ = 2 μg/mL",10 µg/mL
same,solubility,[5]; [28],<LOQ
same,solubility,"[5]; SGF with 1% SLS, pH 1.2, 1% SLS added, SGF (pH = 1.2), LOQ = 2 μg/mL, read-out: Solubility",90 µg/mL
same,solubility,"[5]; SGF with 5% SLS, pH 1.2, 5% SLS added, SGF (pH = 1.2), LOQ = 2 μg/mL, read-out: Solubility",380 µg/mL
same,solubility,"[5]; Water, 25° C., LOQ = 2 μg/mL",<LOQ
same,solubility,"[5]; water with 1% SLS, 1% SLS added, Water, LOQ = 2 μg/mL, read-out: Solubility",470 µg/mL
same,solubility,"[5]; water with 5% SLS, 5% SLS added, Water, LOQ = 2 μg/mL, read-out: Solubility",1920 µg/mL
same,solubility,"[5]; water, lower than the limit of quantification (LOQ), read-out: water solubility",< 2 µg/mL
same,inhibiting the activity of NF-κB,[6],excellent effect
same,solubility,[3]; [8],< 1000 µg/mL
same,solubility,[3]; [9],< 1000 µg/mL
same,solubility,[3]; [10],< 1000 µg/mL
same,solubility,[3]; [11],< 1000 µg/mL
same,solubility,"[3]; DMF, read-out: Solubility",1000 to 5000 µg/mL
same,solubility,"[3]; DMSO, read-out: Solubility",10000 to 25000 µg/mL
same,solubility,[3]; [12],1000 to 5000 µg/mL
same,solubility,[3]; [13],1000 to 5000 µg/mL
same,solubility,[3]; Water,<1000 µg/mL
same,solubility,[3]; [14],< 1000 µg/mL
same,solubility,"[3]; acetone, read-out: Solubility",< 1000 µg/mL
same,solubility,[3]; [15],< 1000 µg/mL
same,solubility,[3]; [16],< 1000 µg/mL
same,solubility,[3]; [17],< 1000 µg/mL
same,solubility,[3]; [18],< 1000 µg/mL
same,solubility,"[3]; ethanol, read-out: Solubility",< 1000 µg/mL
same,solubility,[3]; [19],< 1000 µg/mL
same,solubility,"[3]; heptane, read-out: Solubility",< 1000 µg/mL
same,solubility,[3]; [20],< 1000 µg/mL
same,solubility,[3]; [21],< 1000 µg/mL
same,solubility,[3]; [22],< 1000 µg/mL
same,solubility,[3]; [23],< 1000 µg/mL
same,solubility,"[3]; methanol, read-out: Solubility",1000 to 5000 µg/mL
same,solubility,[3]; [24],< 1000 µg/mL
same,solubility,[3]; [25],< 1000 µg/mL
same,solubility,[3]; [26],< 1000 µg/mL
same,solubility,[3]; [27],< 1000 µg/mL
same,solubility,"[3]; toluene, read-out: Solubility",< 1000 µg/mL
same,solubility,"[3]; water, read-out: Solubility",< 1000 µg/mL
CCCCCCCCCCCCCCCC(=O)N1CCC[C@H]1C(=O)N1CCC[C@H]1C(=O)NCC(=O)N[C@@H](Cc1ccc([O-])cc1)C(=O)[O-].[Na+].[Na+] [Disodium Palmitoyl-L-prolyl-L-prolyl-glycyl-L-tyrosinate] (Palmitoyl-PPGY-OH),Hygroscopicity,[7],very hygroscopic
CCCCCCCCCCCCCCCC(=O)N1CCC[C@H]1C(=O)N1CCC[C@H]1C(=O)NCC(=O)N[C@@H](Cc1ccc(O)cc1)C(=O)O [Meglumine Salt] (Palmitoyl-PPGY-OH),solubility,[1]; read-out: Solubility,< 10000 µg/mL
CCCCCCCCCCCCCCCC(=O)N1CCC[C@H]1C(=O)N1CCC[C@H]1C(=O)NCC(=O)N[C@@H](Cc1ccc(O)cc1)C(=O)O [Micronized Compound II] (Palmitoyl-PPGY-OH),solubility,"[5]; FaSSIF, 25° C., LOQ = 2 μg/mL",50 µg/mL
same,solubility,[5]; [28],<LOQ
same,solubility,"[5]; Water, 25° C., LOQ = 2 μg/mL",<LOQ
